# According to patent US12704458B2, “Critical angle reflection imaging for quantification of molecular interactions” (ARIZONA BOARD OF REGENTS ON BEHALF OF ARIZONA STATE …, priority 2020, dated 2026):
# Key:
# [1] = system: glycoproteins on fixed HeLa cells; assay: SPR imaging of WGA binding to glycoproteins on fixed HeLa cells; conditions: gold surface, 50 μg/ml WGA, average of 10 cells
# Procedure: SPR was first used to measure glycoprotein-WGA interaction on fixed HeLa cells (FIG. 7a). The cells were cultured on a gold surface and fixed right before the measurement (FIG. 7b). PBS buffer was flowed over the surface to establish a baseline and then introduced 50 μg/ml WGA (FIG. 7c). Binding of WGA to the glycoproteins increased the surface refractive index and caused the SPR signal to increase. After the association process, PBS buffer was flowed in again to induce dissociation of WGA from the cells. […] The WGA was labeled with Alexa Fluor 488, allowing verification of the binding using fluorescence. Three fluorescence images were captured at different phases of the binding process: at the baseline, after association, and after dissociation (FIG. 7d) respectively. The fluorescence change, although weak, confirmed that the SPR signal was due to the binding.
# (§1) All the cell-related experiments including CAR, SPR, transmitted and fluorescence measurements (FIGS. 7-9) were performed on an objective-based SPR microscope setup, which consisted of an inverted microscope (Olympus IX-81) and a 60× (NA 1.49) oil-immersion objective. The light source for CAR and SPR imaging was a superluminescent light emitting diode (SLD-260-HP-TOW-PD-670, Superlum, Ireland) with 670 nm wavelength. The light source for transmitted and fluorescence imaging were the stocking halogen and mercury lamp of the microscope, respectively. A CMOS camera (ORCA-Flash 4.0, Hamamatsu) was used to record the images. A gravity-based drug perfusion system (SF-77B, Warner Instruments, Connecticut) was used for delivering analytes to the cells.
# HeLa, SH-EP1, and SH-EP1_α4β2 cells were obtained from the American Type Culture Collection. […]
# (§2) WinSpall 3.01 (Resonant Technologies GmbH, Germany) was used to calculate the reflectivity as a function of incident angle for CAR and SPR. The recorded CAR and SPR images were processed with ImageAnalysis (Biosensing Instrument Inc.) and Fiji. […]
# [2] = system: glycoproteins on fixed HeLa cells; assay: CAR imaging of WGA binding to glycoproteins on fixed HeLa cells; conditions: glass surface, ~61.0 degrees, 50 μg/ml WGA, average of the 9 cells
# Procedure: Next, CAR imaging was used to repeat the glycoprotein-WGA binding measurement. The cells were cultured on a glass surface, and the bright field image and the corresponding CAR image of 9 cells are shown in FIG. 7e. The cells show dark patterns because they have higher refractive index than the background. θi was set at ~61.0 degrees with similar sensitivity to SPR. […] The minor disagreement in kinetic constants might reflect different surfaces and different light illumination depth between SPR and CAR. Fluorescence images captured during the CAR measurement confirmed the binding of WGA (FIG. 7g). […] For this reason, CAR is believed to be more compatible with fluorescence than SPR, and suitable for measuring biological samples that need simultaneous fluorescent labelling.
# as §1
# HeLa, SH-EP1, and SH-EP1_α4β2 cells were obtained from the American Type Culture Collection. The cells were cultured in Dulbecco's modified eagle medium (Lonza) with 10% fetal bovine serum (Invitrogen) and 1% penicillin and streptomycin in a humidified incubator at 37° C. with 5% CO2. […]
# as §2
substance,measurement,setting,value
"WGA: lectin that specifically binds N-acetylglucosamine structures in glycoproteins; with Alexa Fluor 488 tag, Thermo Fisher Scientific",Kd,[1],53 ± 1 nM
same,ka,[1],(2.5±0.1)×10^3 M^−1s^−1
same,kd,[1],(1.3±0.1)×10^−4 s^−1
same,Kd,[2],42 ± 1 nM
same,ka,[2],(6.0±0.1)×10^3 M^−1s^−1
same,kd,[2],(2.6±0.1)×10^−4 s^−1
